Data: patent publication US20060160775A1, “Combination therapy” (priority 2003, published 2006)

Legend:
[1] = tested on: Human LoVo colorectal carcinoma tumour xenografts; assay: Human LoVo colorectal carcinoma tumour xenografts in nude mice; assay type: in vivo, athymic (nu/nu genotype) mouse; details: for Number of tumour regressions evident at day 14: groups of nine; for Mean % Inhibition of tumour growth at day 14: vs vehicle control
Procedure: Human LoVo Colorectal Carcinoma Tumour Xenografts in Nude Mice
1×10^7 LoVo tumour cells in 0.1 ml of serum free Dulbecco's Modified Eagle's Medium (DMEM) were injected subcutaneously (s.c.) into the flank of each athymic (nu/nu genotype) mouse. Tumour volumes were assessed by bilateral Vernier caliper measurement and, taking length to be the longest diameter across the tumour and width the corresponding perpendicular, calculated using the formula (length×width)×the square root of (length×width)×(π/6). […] ZD6126 was dissolved in a solution of 0.05% sodium carbonate in physiological saline and administered by intraperitoneal injection at 0.1 ml/10 g body weight. […] Inhibition of tumour growth from the start of treatment was assessed on day 14 by comparison of the differences in tumor volume between control and treated groups. In addition, the number of tumour regressions following 14 days of treatment was ascertained (tumour regression being evident if the tumour volume at day 14 was smaller than the pre-treatment value on day 0).

[2] = tested on: tumour vasculature; details: in vivo; cited from earlier work
[3] = tested on: tumour models; assay: Anti-tumour activity in a range of models; assay type: in vivo; details: once-daily oral administration
[4] = ZD6126 alone, 100 mg/kg/day, days 0-2, i.p.
[5] = AZD2171 alone, 3 mg/kg/day, days 0-14, p.o.

SMILES | Number of tumour regressions evident at day 14 [1, 4] | Mean % Inhibition of tumour growth at day 14 [1, 4] | Effect on tumour vasculature [2] | Number of tumour regressions evident at day 14 [1, 5] | Mean % Inhibition of tumour growth at day 14 [1, 5] | Anti-tumour activity [3]
COc1cc2c(c(OC)c1OC)-c1ccc(OP(=O)(O)O)cc1[C@@H](NC(C)=O)CC2 [ZD6126, (5S)-5-(acetylamino)-9,10,11-trimethoxy-6,7-dihydro-5H-dibenzo[a,c]cyclohepten-3-yl dihydrogen phosphate] | 1/9 | 65% (P < 0.001) | selectively disrupts tumour vasculature leading to vessel occlusion and extensive tumour necrosis | – | – | –
COc1cc2c(Oc3ccc4[nH]c(C)cc4c3F)ncnc2cc1OCCCN1CCCC1 [AZD2171, 4-(4-fluoro-2-methylindol-5-yloxy)-6-methoxy-7-(3-(pyrrolidin-1-yl)propoxy)quinazoline] | – | – | – | 0/9 | 62% (P < 0.001) | broad-spectrum anti-tumour activity
